Test results: a melting point compilation (Tetko et al.; mined from patent text by program, amines drawn as free bases though some values may be those of a salt)

**Q.** Which melting point does the source give for `CN(CCOc1ccc(CC(Sc2ccccc2)C(=O)O)cc1)c1nc2ccccc2o1` (stereo unspecified) here?
**A.** Its melting point is 144 to 147 °C.

**Q.** For `CC(C)(C#N)c1cc(Cn2cncn2)cc(-c2ccc(OS(N)(=O)=O)cc2)c1`, which melting point is on record?
**A.** Its melting point is 74 to 76 °C.

**Q.** For `COc1ccc(/C=C/c2cc(/C=C/c3ccc4cc[nH]c4c3)n[nH]2)c(OCc2ccccn2)c1`, which melting point is on record?
**A.** The melting point was 107 to 115 °C.

**Q.** For `CCCCCCCCCCCCCCCCCC(=O)Oc1cc(C)c(O)c(C(C)(C)C)c1`, which melting point is on record?
**A.** Its melting point is 64 to 65.5 °C.

**Q.** Which melting point does the source give for `COc1cc(C(=O)NCC2c3ccccc3CC(C)N2C(=O)c2ccccc2)cc(OC)c1OC` (stereo unspecified) here?
**A.** The melting point was 160 to 162 °C.

**Q.** With `Clc1ccc(-c2ncn(CC3CC3)c2-c2ccncc2)cc1Cl` as the compound, how does the melting point read?
**A.** The melting point was 146 °C.

**Q.** With `CN=C(NC#N)NCC(O)COc1cccc(CN2CCCCC2)c1` (stereo unspecified) as the compound, how does the melting point read?
**A.** The melting point was 45 to 47 °C.

**Q.** With `CCCc1c(C#N)c(-c2ccc(C#N)cc2)c(C)n1Cc1cnc(Cl)c(CO)c1` as the compound, how does the melting point read?
**A.** The melting point was 137 to 138 °C.

**Q.** With `Cc1c(NCCN)nc(=O)n(C)c1N` as the compound, how does the melting point read?
**A.** Its melting point is 186 to 188 °C.

**Q.** With `CCCCc1nc2c(N)nc3cccnc3c2n1CCNC(=O)c1cc(C(C)(C)C)c(O)c(C(C)(C)C)c1` as the compound, how does the melting point read?
**A.** The melting point was 248 to 250 °C.

**Q.** For `COc1cc2c(cc1C)CCN(C)C2C1(C2C=CCCC2)CCC1` (stereo unspecified), which melting point is on record?
**A.** Its melting point is 124 to 125 °C.

**Q.** For `CC(C)n1cc(C(=O)O)c2ccc(Br)cc21`, which melting point is on record?
**A.** Its melting point is 207 to 209 °C.

**Q.** With `Cc1sc(N2C(=O)OCC2(C)C)nc1-c1ccc(C#N)cc1` as the compound, how does the melting point read?
**A.** Its melting point is 192 to 193 °C.

**Q.** Which melting point does the source give for `Oc1ccc2c(-c3nc4ccc(O)cc4o3)cccc2c1` here?
**A.** The melting point was 273 to 275 °C.

**Q.** For `CC(C)S(=O)(=O)c1cnc(Cl)c(Cl)c1`, which melting point is on record?
**A.** The melting point was 146 °C.

**Q.** For `COC(=O)N=P(c1ccccc1)(c1ccccc1)c1ccccc1CN(C)C`, which melting point is on record?
**A.** The melting point was 95 to 97 °C.

**Q.** With `COC(=O)CCCCCCC1C(=O)CCN1C(=O)c1ccc(-c2ccccc2)cc1` (stereo unspecified) as the compound, how does the melting point read?
**A.** Its melting point is 90 to 92 °C.

**Q.** For `S=C(Nc1ccccc1)N(Cc1ccc(Cl)cc1)C1CCCC1`, which melting point is on record?
**A.** Its melting point is 129 to 132 °C.

**Q.** With `CN(C)Cc1cc(C(=O)c2sccc2Cl)cc(C(C)(C)C)c1O` as the compound, how does the melting point read?
**A.** Its melting point is 131 to 132 °C.

**Q.** With `NC(=S)N1CCC(c2cccc(C(F)(F)F)c2)=N1` as the compound, how does the melting point read?
**A.** The melting point was 159 to 161 °C.

**Q.** With `COc1ccc(/C=C/S(=O)(=O)Nc2ccc(F)cc2)cc1` as the compound, how does the melting point read?
**A.** Its melting point is 115 to 117 °C.

**Q.** Which melting point does the source give for `O=S(=O)(c1ccc(CO)cc1)N1CCCC1c1ccc(F)cc1` (racemic) here?
**A.** The melting point was 107 °C.

**Q.** With `Cn1nc(-c2ncc(Cl)cc2F)c(C(F)F)c1OC(F)F` as the compound, how does the melting point read?
**A.** Its melting point is 79 to 81 °C.

**Q.** With `O=C(c1cccc(-c2cc3ccccc3[nH]2)c1)c1cc2ccccc2[nH]1` as the compound, how does the melting point read?
**A.** Its melting point is 206 to 207 °C.

**Q.** Which melting point does the source give for `COc1nnc2cc(Cl)ccc2n1` here?
**A.** The melting point was 122 °C.

**Q.** With `O[C@@H]1C=C[C@H](n2cnc3c(Cl)ncnc32)C1` (racemic) as the compound, how does the melting point read?
**A.** Its melting point is 118 °C.

**Q.** With `O=C(O)COc1cccc(CCc2cc(-c3ccccc3)n(-c3ccccc3)n2)c1` as the compound, how does the melting point read?
**A.** The melting point was 125 to 127 °C.

**Q.** For `COc1ccc(C(=O)CN2CCN(c3cccccc3=O)CC2)cc1OC`, which melting point is on record?
**A.** Its melting point is 132 to 135 °C.

**Q.** With `CCOC(=O)NC(=NCCCc1c[nH]cn1)NCCSCc1cccnc1` as the compound, how does the melting point read?
**A.** Its melting point is 90 to 91 °C.

**Q.** With `CCOCc1nc2cnc3cc(Br)cnc3c2n1CC(C)C` as the compound, how does the melting point read?
**A.** The melting point was 115 to 116 °C.

**Q.** For `CN(C)C(=O)Sc1ccc2ncc([N+](=O)[O-])c(-c3ccccc3)c2c1`, which melting point is on record?
**A.** Its melting point is 171 to 173 °C.

**Q.** For `O=[N+]([O-])c1ccc(Oc2ccc(C(F)(F)F)cc2Cl)cc1C=NO`, which melting point is on record?
**A.** Its melting point is 111 to 115 °C.

**Q.** For `Cc1cccc(Nc2ccccc2C(=O)OCC(=O)N(C)C)c1C`, which melting point is on record?
**A.** Its melting point is 85 to 86 °C.

**Q.** For `Fc1ccc(CNc2nc3ccccc3n2-c2ccc(F)c(F)c2)cc1F`, which melting point is on record?
**A.** Its melting point is 158 to 160 °C.

**Q.** For `CCCc1nn(CC)c2c(=O)[nH]c(-c3cc(S(=O)(=O)N4CCN(CCO)CC4)ccc3OCC)nc12`, which melting point is on record?
**A.** The melting point was 191 to 193 °C.

**Q.** For `CC(C)(C)c1cccc(S(=O)(=O)n2c(Cc3ccc(C(=O)O)cc3)cc3cc(C(F)(F)F)ccc32)c1`, which melting point is on record?
**A.** The melting point was 128 °C.

**Q.** Which melting point does the source give for `CCOC(=O)NC(=O)C(F)F` here?
**A.** Its melting point is 55 to 57 °C.

**Q.** For `NNc1nccc(-c2cccc(C(F)(F)F)c2)n1`, which melting point is on record?
**A.** The melting point was 103 to 106 °C.

**Q.** Which melting point does the source give for `CCOC(=O)c1ncn2c1[C@@H]1CCCN1C(=O)c1cc(F)ccc1-2` here?
**A.** The melting point was 194 to 195 °C.

**Q.** Which melting point does the source give for `CCC1=NCC(c2cccc(O)c2)O1` (stereo unspecified) here?
**A.** Its melting point is under 84 °C.

**Q.** With `N#CCNc1nc(N2CCc3ccccc3CC2)c(C#N)c(=O)[nH]1` as the compound, how does the melting point read?
**A.** The melting point was over 200 °C.

**Q.** For `COc1cccc(C(N)=O)c1N`, which melting point is on record?
**A.** The melting point was 140 to 141 °C.

**Q.** For `CCN(CC)C(=O)c1ccoc1-c1ccc(N(C)C)cc1`, which melting point is on record?
**A.** The melting point was 73 to 74 °C.

**Q.** For `O=C(C(=O)c1ccn(CC(F)(F)F)c1)c1cccc(Br)c1`, which melting point is on record?
**A.** The melting point was 105 to 106 °C.

**Q.** Which melting point does the source give for `NC(=O)N(O)Cc1ccc(N2CCC(=O)CC2)cc1` here?
**A.** The melting point was 138 to 140 °C.

**Q.** Which melting point does the source give for `CC(C)(C)OC(=O)N(C(=O)OC(C)(C)C)c1cnc(-c2cncc(F)c2)s1` here?
**A.** Its melting point is 94 to 96 °C.

**Q.** For `O=C(c1ccc(F)c(Br)c1)N1CCC(Br)C(c2ccccc2)=N1` (stereo unspecified), which melting point is on record?
**A.** Its melting point is 147 to 148 °C.

**Q.** For `CC(C)(C)C(O)c1ccc(Oc2ccccc2)cc1` (stereo unspecified), which melting point is on record?
**A.** The melting point was 79 to 80 °C.

**Q.** Which melting point does the source give for `COc1cc(OC)c2c(C)c(CCN3CCN(c4cccc(C(F)(F)F)c4)CC3)c(=O)oc2c1` here?
**A.** The melting point was 138 to 139 °C.

**Q.** With `COc1ccccc1NC(=O)Nc1nc(Oc2ccc3ccccc3c2)nc(N(CCC(=O)O)Cc2cccc(Cl)c2)n1` as the compound, how does the melting point read?
**A.** The melting point was 215 to 218 °C.

**Q.** With `N#CCCNC(=S)C1=CC(CF)(CF)Oc2ccc([N+](=O)[O-])cc21` as the compound, how does the melting point read?
**A.** Its melting point is 114 to 116 °C.
